In patent US4086347A, “9-[3-(4-Phenoxymethylpiperidino)-propyl]-adenines” (Boehringer Mannheim GmbH, priority 1975, dated 1978):

Assays:
blood pressure = experiment: Blood pressure reduction in awake rats with arterial high pressure (sodium chloride / 11-deoxycorticosteroneacetate); format: in vivo, rat; conditions: 4 hours after application, median
Experimental: In order to establish the effectiveness of the novel products of the invention as agents for reducing blood pressure, a series of tests as follows were carried out.
The following were the test methods used:
The test animals were rats into which arterial catheters had been implanted in a sterile operation via the arteria femoralis into the aorta. It was possible to measure the animals' blood pressure in the awake state directly in the blood with a transducer (Statham Transducer Type TP 23 D 6) via a carrier frequency measuring bridge. The animals were treated by administration of 10% common salt (sodium chloride) in their feed and, starting on the sixth week of their life, two injections per week of 5 mg at a time of 11-deoxycorticosteroneacetate per animal and thus developed an arterial high pressure in the median with values of […]. The test compounds were administered to the animals as follows: After the blood pressure control values had been determined, the animals received the test compound perorally suspended in 10 ml of 1% methyl cellulose solution in the indicated dosage and measurements were taken 4 hours after oral application of the substance.
The values set forth in the Table represent in each case the median of at least 7 individual measurements of blood pressure depression (in mm Hg) per applied substance.

[1] = test system: passive cutaneous anaphylactic reaction in rats produced by injection of serum containing reaginic antibodies to egg albumin; experiment: Inhibition of passive cutaneous anaphylactic (PCA) reaction in rats induced by reaginic antibodies; format: in vivo, rat; conditions: intravenously immediately before antigen
Experimental: Diethylcarbamazin, i.e., 1-diethylcarbamoyl-4-methylpiperazine was used as a comparison compound. Specifically, tests were run as follows:
Serum containing reaginic (IgE-like) antibody to egg albumin was prepared by injecting rats intramuscularly with 0.1 ml of a solution of the antigen (10 mg/ml) in saline together with 0.5 ml of Bordetella pertussis vaccine (Behring; 2 × 10^10 organisms/ml). 9-14 Days later the animals were bled from the abdominal aorta; the serum was pooled and stored at -20° C until required. The titer of the serum, i.e., the highest dilution inducing passive cutaneous anaphylaxis (PCA) in the rat following a 48-hour latent period, was between 1:8 and 1:32. For use in these experiments the serum was diluted 1:24.
The animals were anesthetized with 2,2-dichloro-1,1-difluoroethyl-methyl ether, sold under the trademark Penthrane, and were sensitized by injecting 0.1 ml of the antiserum into the shaved abdominal flanks. After 48 hours for reaginic PCA, the animals were given an intravenous injection of 1 ml of saline solution containing 0.5% by weight of egg albumin and 0.25% by weight of Evans Blue.
After having killed and exsanguinated the animals, the size in square millimeters and the intensity, in arbitary scores, of the resulting blue spot were determined. The product of these two parameters was used to determine the degree of the reaction and the degree of reaction with no active material was taken as the standard against which to measure % inhibition of the anaphylactic reaction.
6 Animals were used per dose level and for control.
The test material was injected intravenously immediately before the antigen, using a solution in water containing 0.5% HCl and 2% of dimethylformamide. For comparative purposes there was also tested diethylcarbamoyl-4-methylpiperazine sold under the tradename Diethylcarbamazin. The volumes of the injections were varied to give the indicated dosage of active material. The results obtained were as follows:
(Ovalbumin 2 × cryst. and Bord. pertussis 2 × 10^10) Active material applied intravenously immediately before antigen

| Compound | Maximum Blood Pressure Reduction (blood pressure; 25 mg/kg perorally) [mm Hg] | other results |
| --- | --- | --- |
| CCCNc1ncnc2c1ncn2CCCN1CCC(COc2ccccc2)CC1 [Example 1o, N^6-n-propyl-9-[3-(4-phenoxymethyl-piperidino)-propyl]-adenine] | -67 ± 7 | – |
| CNc1ncnc2c1ncn2CCCN1CCC(COc2ccc(F)cc2)CC1 [Example 1k, N^6-methyl-9-{3-[4-(4-fluorophenoxy-methyl)-piperidino]-propyl}-adenine] | -49 ± 8 | % Inhibition PCA ([1]; 0.38 mg/kg): 21% |
| Nc1ncnc2c1ncn2CCCN1CCC(COc2ccccc2Cl)CC1 [Example 1b, 9-{3-[4-(2-chlorophenoxymethyl)-piperidino]-propy}-adenine] | -64 ± 5 | % Inhibition PCA ([1]; 0.38 mg/kg): 32% |
| COc1ccc(OCC2CCN(CCCn3cnc4c(N)ncnc43)CC2)cc1 [Example 1h, 9-{3-[4-(4-methoxy-phenoxymethyl)-piperidino]-propyl}-adenine] | -19 ± 3 | – |
| CCCNc1ncnc2c1ncn2CCCN1CCC(COc2ccc(F)cc2)CC1 [Example 1p, N^6-n-propyl-9-{3-[4-(4-fluorophenoxy-methyl)-piperidino]-propyl}-adenine] | -57 ± 8 | – |
| OCCNc1ncnc2c1ncn2CCCN1CCC(COc2ccccc2)CC1 [Example 1n, N^6-(2-hydroxyethyl)-9-[3-(4-phenoxy-methyl-piperidino)-propyl]-adenine] | -48 ± 5 | – |
| COc1cccc(OCC2CCN(CCCn3cnc4c(N)ncnc43)CC2)c1 [Example 1g, 9-{3-[4-(3-methoxy-phenoxymethyl)-piperidino]-propyl}-adenine] | -18 ± 4 | – |
| CC(C)Nc1ncnc2c1ncn2CCCN1CCC(COc2ccccc2)CC1 [Example 2a, N^6-isopropyl-9-[3-(4-phenoxymethyl-piperidino)-propyl]-adenine] | -35 ± 9 | – |
| Cc1ccccc1OCC1CCN(CCCn2cnc3c(N)ncnc32)CC1 [Example 1i, 9-{3-[4-(2-methyl-phenoxymethyl)-piperidino]-propyl}-adenine] | -55 ± 7 | – |
| CCN(CC)C(=O)N1CCN(C)CC1 [Diethylcarbamazin, 1-diethylcarbamoyl-4-methylpiperazine, reference compound] | – | % Inhibition PCA ([1]; 60.0 mg/kg): 58% |
| CCNc1ncnc2c1ncn2CCCN1CCC(COc2ccc(F)cc2)CC1 [Example 1m, N^6-ethyl-9-{3-[4-(4-fluorophenoxy-methyl)-piperidino]-propyl}-adenine] | -20 ± 6 | – |
| Nc1ncnc2c1ncn2CCCN1CCC(COc2ccc(F)cc2)CC1 [Example 1e, 9-{3-[4-(4-fluorophenoxymethyl)-piperidino]-propyl}-adenine] | -60 ± 7 | % Inhibition PCA ([1]; 0.38 mg/kg): 54% |
| CCCCNc1ncnc2c1ncn2CCCN1CCC(COc2ccc(F)cc2)CC1 [Example 2, N^6-n-Butyl-9-{3-[4-(4-fluorophenoxymethyl)-piperidino]propyl}-adenine] | -53 ± 6 | – |
| CC(N)(Cc1ccc(O)c(O)c1)C(=O)O (stereo not drawn) [α-Methyl-Dopa, reference compound] | – | Maximum Blood Pressure Reduction (blood pressure; 150 mg/kg perorally): -33 ± 5 mm Hg |
| CNc1ncnc2c1ncn2CCCN1CCC(COc2ccccc2)CC1 [Example 1j, N^6-methyl-9-[3-(4-phenoxymethyl-piperidino)-propyl]-adenine] | – | % Inhibition PCA ([1]; 0.38 mg/kg): 21%; % Inhibition PCA ([1]; 0.75 mg/kg): 60% |
| Nc1ncnc2c1ncn2CCCN1CCC(COc2ccc(Cl)cc2)CC1 [Example 1d, 9-{3-[4-(4-chlorophenoxymethyl)-piperidino]-propyl}-adenine] | – | Maximum Blood Pressure Reduction (blood pressure; 50 mg/kg perorally): -25 ± 7 mm Hg |
| Nc1ncnc2c1ncn2CCCN1CCC(COc2ccccc2Br)CC1 [Example 1a, 9-{3-[4-(2-bromophenoxymethyl)-piperidino]-propyl}-adenine] | -47 ± 7 | – |
| CN(C)c1ncnc2c1ncn2CCCN1CCC(COc2ccccc2)CC1 [Example 1q, 6-dimethylamino-9-[3-(4-phenoxymethyl-piperidino)-propyl]-purine] | -41 ± 7 | – |
| Nc1ncnc2c1ncn2CCCN1CCC(COc2ccccc2)CC1 [Example 1, 9-[3-(4-Phenoxymethylpiperidino)-propyl]-adenine] | -76 ± 5 | % Inhibition PCA ([1]; 0.38 mg/kg): 27%; % Inhibition PCA ([1]; 0.75 mg/kg): 45% |
| CCCCNc1ncnc2c1ncn2CCCN1CCC(COc2ccccc2)CC1 [Example 2b, N^6-n-butyl-9-[3-(4-phenoxymethyl-piperidino)-propyl]-adenine] | – | Maximum Blood Pressure Reduction (blood pressure; 50 mg/kg perorally): -35 ± 11 mm Hg |
